{"source": "patent US12391641B2", "about": "“Prostaglandin EP4 receptor antagonist compounds” (NXERA PHARMA UK LIMITED, priority 2019, dated 2025)"}
{"target": "T1, Human prostaglandin E2 receptor 4 (EP4) (Homo sapiens, UniProt P35408)", "T1 construct": "expressed in transfected cells; host or cells: HEK293 cells transduced with EP4 BacMam virus", "T1 sequence (P35408 whole entry)": "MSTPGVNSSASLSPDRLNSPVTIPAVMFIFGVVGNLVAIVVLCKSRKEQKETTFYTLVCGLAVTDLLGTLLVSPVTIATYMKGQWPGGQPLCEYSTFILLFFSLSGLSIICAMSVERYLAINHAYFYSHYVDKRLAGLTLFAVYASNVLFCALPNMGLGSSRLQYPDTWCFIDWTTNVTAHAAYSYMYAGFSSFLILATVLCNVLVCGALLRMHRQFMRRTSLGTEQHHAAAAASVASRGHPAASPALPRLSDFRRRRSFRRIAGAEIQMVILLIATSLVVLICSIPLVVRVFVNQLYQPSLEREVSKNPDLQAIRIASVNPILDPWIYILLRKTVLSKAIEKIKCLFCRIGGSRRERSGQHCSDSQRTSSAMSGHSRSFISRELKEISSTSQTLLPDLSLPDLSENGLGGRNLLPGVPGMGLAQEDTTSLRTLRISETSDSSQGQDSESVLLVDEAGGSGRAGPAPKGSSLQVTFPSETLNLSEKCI", "assay": "cAMP Gs Functional Assay (HTRF cAMP dynamic-2), antagonism of PGE2", "assay_type": "cell-based", "settings": "HEK293 cells transfected with EP4 BacMam virus; PGE2 challenge at EC80 (7 nM); pIC50 converted to functional pKb with a modified Cheng Prussoff equation; read-out: Human EP4 fpKb (converted)", "experimental": "Cloning, Baculovirus generation, large scale infection of HEK293 cells and membrane preparation: Human prostaglandin E2 receptor 4 (EP4) was cloned into pBacMam expression vector (GeneScript, UK). Transposition of EP4 DNA was performed using Invitrogen's Bac-to-Bac Baculovirus Expression Systems. P0 baculovirus was generated by transfecting SF9 Cells with bacmid DNA using Cellfectin II transfection reagent (ThermoFisher Scientific, UK, catalog number 10362-100). Following P0 generation P1 virus was then generated ready for large scale infection and membrane preparation. HEK293 cells were grown in DMEM+Glutamax, supplemented with 10% heat inactivated fetal bovine serum (FBS). Cells were infected at a seeding density of 3.5 million cells/mL in 500 cm^3 flasks at 5% v/v EP4 Bacman. Expression was carried out over 36 hr period at 37° C. with 5% CO2. The cells were removed using PBS and a cell scrapper. The cell culture was centrifuged at 2500 RPM for 10 mins at 4° C. The supernatant was then poured off and the pellet stored at −80° C. The pellet was defrosted and re-suspended in 15 mL of homogenising buffer (20 mM HEPES, 10 mM EDTA, pH 7.4). Then homogenised in mechanical homogeniser (VMR) for 10 seconds. The membrane was centrifuged in centrifuge tubes at 40,000 g for 15 mins at 4° C. The supernatant was poured away and re-suspended in 15 mL of homogenising buffer. Homogenised for 20 seconds. The membrane was centrifuged at 40,000 g for 45 mins at 4° C. The membrane was re-suspended in 3 mL of storage buffer (20 mM HEPES, 0.1 mM EDTA, pH 7.4) mixing well. The resulting membranes were then stored at −80° C.\ncAMP Gs Functional Assay: cAMP production following EP4 receptor activation was determined using the Homogeneous Time-Resolved Fluorescence (HTRF) cAMP dynamic-2 assay (Cisbio, France). HEK293 cells were transfected using a 0.5% EP4 Bacman virus for 36 hours, before dissociating the cells, and freezing at […].\nOn the day of testing, increasing concentration of test compounds, alongside positive controls (1 uM ONO-AE3-208) and negative control (DMSO (Sigma-Aldrich, UK) were added to a ProxiPlate-384 Plus, White 384-shallow well Mircoplate, (PerkinElmer, USA) using the ECHO dispense.\nCells were defrosted in a water bath and resuspended in DMEM supplemented with 10% FBS before centrifuging at 1200 RPM for 5 mins to form a pellet. The pellet was resuspended in assay buffer (DMEM+0.5 mM IBMX (Tocris, Abingdon, UK, Catalog Number 2845)) to a 1×10^6 cells/mL. Cell suspension, for a final assay concentration of 5000 cell/well was added using the multidrop to the pre-dispensed assay plate. The plate was then incubated at 37° C. for 30 mins, with 5% CO2. After incubation, EC80 concentration (7 nM) of PGE2 (EP4 agonist) was added to the plate. In parallel, a PGE2 dose-response curve was dispense to a separate plate. Assay buffer was then dispensed on top. The cAMP production was determined as manufacturer's instructions, before plates were read on a PheraStar fluorescence plate reader (BMG LabTech, Germany).\nThe pIC50 was converted to a functional pKb value using a modified Cheng Prussoff equation where Kd=agonist EC50 and Lhot=agonist challenge concentration;", "units": {"Ki": "nM"}}
{"compound": "CC(C)[C@@H](OCc1ccc(C(F)(F)F)cc1)C(=O)N[C@@H](C)c1ccc(C(=O)NS(C)(=O)=O)cc1", "note": "[Example 53, 4-((S)-1-((R)-3-methyl-2-((4-(trifluoromethyl)benzyl)oxy)butanamido)ethyl)-N-(methylsulfonyl)benzamide]", "Ki": 64.6}
{"compound": "CC(C)[C@@H](OCc1cccc(C#N)c1)C(=O)NC1(c2ccc(C(=O)O)cc2)CC1", "note": "[Example 54, (R)-4-(1-(2-((3-cyanobenzyl)oxy)-3-methylbutanamido)cyclopropyl)benzoic acid]", "Ki": "> 12900"}
{"compound": "CC(C)[C@@H](OCc1ccc2c(c1)OC(F)(F)O2)C(=O)NC1(c2ccc(C(=O)O)cc2)CC1", "note": "[Example 55, (R)-4-(1-(2-((2,2-difluorobenzo[d][1,3]dioxol-5-yl)methoxy)-3-methylbutanamido)cyclopropyl)benzoic acid]", "Ki": 0.479}
{"compound": "CCS(=O)(=O)c1cccc(CO[C@@H](C(=O)NC2(c3ccc(C(=O)O)cc3)CC2)C(C)C)c1", "note": "[Example 56, (R)-4-(1-(2-((3-(ethylsulfonyl)benzyl)oxy)-3-methylbutanamido)cyclopropyl)benzoic acid]", "Ki": 7.24}
{"compound": "CC(C)[C@@H](OCc1ccc(F)c(OC(F)F)c1)C(=O)NC1(c2ccc(C(=O)O)cc2)CC1", "note": "[Example 57, (R)-4-(1-(2-((3-(difluoromethoxy)-4-fluorobenzyl)oxy)-3-methylbutanamido)cyclopropyl)benzoic acid]", "Ki": 0.372}
{"compound": "CC(C)[C@@H](OCc1cccc(OC(F)(F)F)c1)C(=O)NC1(c2ccc(C(=O)O)cc2)CC1", "note": "[Example 58, (R)-4-(1-(3-methyl-2-((3-(trifluoromethoxy)benzyl)oxy)butanamido)cyclopropyl)benzoic acid]", "Ki": "> 12900"}
{"compound": "CC(C)[C@@H](OCc1ccc(C(F)(F)F)cc1)C(=O)NCc1ccc(C(=O)O)cc1", "note": "[Example 59, (R)-4-((3-methyl-2-((4-(trifluoromethyl)benzyl)oxy)butanamido)methyl)benzoic acid]", "Ki": 9.77}
{"compound": "COCc1cccc(CO[C@@H](C(=O)NC2(c3ccc(C(=O)O)cc3)CC2)C(C)C)c1", "note": "[Example 60, (R)-4-(1-(2-((3-(methoxymethyl)benzyl)oxy)-3-methylbutanamido)cyclopropyl)benzoic acid]", "Ki": 1.91}
{"compound": "CC(C)[C@@H](OCc1ccc(C(F)F)c(F)c1)C(=O)NC1(c2ccc(C(=O)O)cc2)CC1", "note": "[Example 61, (R)-4-(1-(2-((4-(difluoromethyl)-3-fluorobenzyl)oxy)-3-methylbutanamido)cyclopropyl)benzoic acid]", "Ki": 0.339}
{"compound": "CC(C)[C@@H](OCc1ccc(C(F)F)cc1)C(=O)NC1(c2ccc(C(=O)O)cc2)CC1", "note": "[Example 62, (R)-4-(1-(2-((4-(difluoromethyl)benzyl)oxy)-3-methylbutanamido)cyclopropyl)benzoic acid]", "Ki": 0.398}
{"compound": "CC(C)[C@@H](OCc1ccc(C(F)(F)F)cc1)C(=O)NC1(c2ccc(C(=O)NS(C)(=O)=O)cc2)CC1", "note": "[Example 63, (R)-4-(1-(3-methyl-2-((4-(trifluoromethyl)benzyl)oxy)butanamido)cyclopropyl)-N-(methylsulfonyl)benzamide]", "Ki": 25.7}
{"compound": "CC(C)[C@@H](OCc1ccc(C(F)(F)F)cc1)C(=O)NC(C)(C)c1ccc(C(=O)O)cc1", "note": "[Example 64, (R)-4-(2-(3-methyl-2-((4-(trifluoromethyl)benzyl)oxy)butanamido)propan-2-yl)benzoic acid]", "Ki": 47.9}
{"compound": "CC(C)[C@@H](OCc1cccc(C2CC2)c1)C(=O)NC1(c2ccc(C(=O)O)cc2)CC1", "note": "[Example 65, (R)-4-(1-(2-((3-cyclopropylbenzyl)oxy)-3-methylbutanamido)cyclopropyl)benzoic acid]", "Ki": "> 209"}
{"compound": "CC(C)[C@@H](OCc1ccn2ccnc2c1)C(=O)N[C@@H](C)c1ccc(C(=O)O)cc1", "note": "[Example 66, 4-((S)-1-((R)-2-(imidazo[1,2-a]pyridin-7-ylmethoxy)-3-methylbutanamido)ethyl)benzoic acid]", "Ki": 34.7}
{"compound": "CC(C)[C@@H](OCc1ccnc(OC(F)F)c1)C(=O)NC1(c2ccc(C(=O)O)cc2)CC1", "note": "[Example 67, (R)-4-(1-(2-((2-(difluoromethoxy)pyridin-4-yl)methoxy)-3-methylbutanamido)cyclopropyl)benzoic acid]", "Ki": 0.575}
{"compound": "CC(C)[C@@H](OCc1cc(OC(F)F)ccn1)C(=O)NC1(c2ccc(C(=O)O)cc2)CC1", "note": "[Example 68, (R)-4-(1-(2-((4-(difluoromethoxy)pyridin-2-yl)methoxy)-3-methylbutanamido)cyclopropyl)benzoic acid]", "Ki": 0.562}
{"compound": "CC(C)[C@@H](OCc1ccc(C(F)(F)F)cc1)C(=O)NC1(c2ccc(-c3nnn[nH]3)cc2)CC1", "note": "[Example 69, (R)—N-(1-(4-(1H-tetrazol-5-yl)phenyl)cyclopropyl)-3-methyl-2-((4-(trifluoromethyl)benzyl)oxy)butanamide]", "Ki": 0.955}
{"compound": "CC(C)[C@@H](OCc1ccc(F)cc1)C(=O)NC1(c2ccc(-c3nnn[nH]3)cc2)CC1", "note": "[Example 70, (R)—N-(1-(4-(1H-tetrazol-5-yl)phenyl)cyclopropyl)-2-((4-fluorobenzyl)oxy)-3-methylbutanamide]", "Ki": 6.92}
{"compound": "CC(C)[C@@H](OCc1ccc(F)c(F)c1)C(=O)NC1(c2ccc(-c3nnn[nH]3)cc2)CC1", "note": "[Example 71, (R)—N-(1-(4-(1H-tetrazol-5-yl)phenyl)cyclopropyl)-2-((3,4-difluorobenzyl)oxy)-3-methylbutanamide]", "Ki": 0.372}
{"compound": "CC(C)[C@@H](OCc1cccc(OC(F)F)c1)C(=O)NC1(c2ccc(-c3nnn[nH]3)cc2)CC1", "note": "[Example 72, (R)—N-(1-(4-(1H-tetrazol-5-yl)phenyl)cyclopropyl)-2-((3-(difluoromethoxy)benzyl)oxy)-3-methylbutanamide]", "Ki": 0.589}
{"compound": "CC(C)[C@@H](OCc1ccc(C(F)(F)F)cc1)C(=O)NC1(c2ccc(C(=O)O)cc2)CCC1", "note": "[Example 73, (R)-4-(1-(3-methyl-2-((4-(trifluoromethyl)benzyl)oxy)butanamido)cyclobutyl)benzoic acid]", "Ki": 182}
{"compound": "CC(C)[C@@H](OCc1ccnc(OC(F)F)c1)C(=O)N[C@@H](C)c1ccc(C(=O)O)cc1", "note": "[Example 74, 4-((S)-1-((R)-2-((2-(difluoromethoxy)pyridin-4-yl)methoxy)-3-methylbutanamido)ethyl)benzoic acid]", "Ki": 0.447}
{"compound": "CC(C)[C@@H](OCc1ccc(C(F)(F)F)cn1)C(=O)NC1(c2ccc(C(=O)O)cc2)CC1", "note": "[Example 75, (R)-4-(1-(3-methyl-2-((5-(trifluoromethyl)pyridin-2-yl)methoxy)butanamido)cyclopropyl)benzoic acid]", "Ki": 69.2}
{"compound": "CC(C)[C@@H](OCc1ccc(C(F)(F)F)nc1)C(=O)NC1(c2ccc(C(=O)O)cc2)CC1", "note": "[Example 76, (R)-4-(1-(3-methyl-2-((6-(trifluoromethyl)pyridin-3-yl)methoxy)butanamido)cyclopropyl)benzoic acid]", "Ki": 33.1}
{"compound": "CC(C)[C@@H](OCc1cc(OC(F)F)ccn1)C(=O)N[C@@H](C)c1ccc(C(=O)O)cc1", "note": "[Example 77, 4-((S)-1-((R)-2-((4-(difluoromethoxy)pyridin-2-yl)methoxy)-3-methylbutanamido)ethyl)benzoic acid]", "Ki": 27.5}
{"compound": "CC(C)[C@@H](OCc1ccc(F)c(Cl)c1)C(=O)NC1(c2ccc(C(=O)O)cc2)CC1", "note": "[Example 78, (R)-4-(1-(2-((3-chloro-4-fluorobenzyl)oxy)-3-methylbutanamido)cyclopropyl)benzoic acid]", "Ki": "> 20900"}
{"compound": "CC(C)[C@@H](OCc1ccc(Cl)c(F)c1)C(=O)NC1(c2ccc(C(=O)O)cc2)CC1", "note": "[Example 79]", "Ki": 2.45}
{"compound": "CC(C)[C@@H](OCc1cccc(C2CC2)c1)C(=O)NC1(c2ccc(-c3nnn[nH]3)cc2)CC1", "note": "[Example 80, (R)-2-((3-cyclopropylbenzyl)oxy)-N-(1-(4-(2,3-dihydro-1H-tetrazol-5-yl)phenyl)cyclopropyl)-3-methylbutanamide]", "Ki": 0.195}
